Test results published in patent US20250206704A1, “ENGINEERED IONOPHORES FOR TRANSPORT OF METAL IONS” (The Brigham and Women's Hospital, Inc., priority 2022, published 2025).
Converted amounts (≈) assume the structure as drawn. Read-outs that look alike come from different tables or passages of the source.

Tests used:
[1] = UV/Vis titration, stability constant (logK) with ZnCl2; format: physicochemical; conditions: UV/Vis titration with ZnCl2, TitrationFit
Description: Applicants validated the design principles by confirming that the silyl group lowered the binding affinity and shielded the hydrophilic pocket. […] [17] […] Applicants confirmed that all compounds bound Zn^II with 1:1 stoichiometry (FIG. 12). […] Applicants superimposed the X-ray structure of the TIPS-containing Zn^II:9 complex with the literature precedented Zn^II:1 and observed significant structural distortion in the Zn^II:9 complex, which could explain the lower logK.
A solution of ligand was prepared in acetonitrile. The starting concentration was chosen to be around 0.10 mM, based on the absorption maximum of the compound. This solution (2.5 mL) was pipetted into a quartz cuvette with a 1-cm optical path length. The titration was performed by the stepwise addition of a 10-mM ZnC12 solution in acetonitrile. The absorption spectra were measured over the range of 250-800 nm. The calculation of the stability constants was accomplished using TitrationFit.1

[2] = Co-incubation kinetic study of ligand exchange with DA-ZP1 in presence of compound and Zn(II); format: physicochemical; conditions: 10 μM compound with 10 μM Zn^II, then 5 μM DA-ZP1
Method: The compound in phosphate-buffered saline (PBS) was added to a 96-well microplate (250 μL, 10 μM per well, Nunc 96-well plates) and incubated with 10 μM of ZnCl2. […] Reaction kinetics were monitored by measuring the fluorescence of the activated fluorescein dye (λex=490 nm, λem=522 nm) over 2 h.

[3] = test system: Staphylococcus epidermidis; assay: MIC, broth microdilution; format: cell-based
Description: Next, Applicants evaluated the antibacterial activities of the ionophores. First, Applicants determined their minimum inhibitory concentration (MIC) in the gram-positive bacterium that causes hospital-acquired infections, Staphylococcus epidermidis.
(§1) Applicants reasoned that limiting extracellular zinc with EDTA would abolish ionophore activity by depleting the available metal ions for membrane transport. […] [24]
Staphylococcus epidermidis ATCC® 12228™, Staphylococcus caprae ATCC® 51549™, Bacillus subtilis ATCC® 6051™, and Bacillus cereus ATCC® 14579™ were grown in cation-adjusted Mueller-Hinton broth (CA-MHB) (catalog no. 90922, Sigma) as per the Clinical and Laboratory Standards Institute guidelines.2 Bacteria were routinely grown at 37° C. under aerobic conditions.
The MIC assay was performed according to the Clinical and Laboratory Standards Institute protocols.^3 The antibacterial activities of the compounds were measured using the broth microdilution method. Serial dilutions of compounds were prepared in cation-adjusted Müller Hinton Broth. Each dilution (100 μL) was dispensed to each well of a round-bottom plate to obtain final concentrations ranging from 0.07815-40 μM. Bacteria were grown at 37° C. overnight on cation-adjusted Müller Hinton Broth. The bacterial solution was prepared in 0.9% saline and adjusted to obtain an OD600=0.1 using a SpectraMax M5 (Molecular Devices). The resultant suspension was diluted 1:20 with cation-adjusted Müller Hinton Broth. The resulting mixture (10 μL) was added to each well of the plates (approximately 5×10^4 CFU/well), mixed, and incubated at 37° C. for 24 h. The MIC value was determined as the minimum concentration that inhibited the growth of bacteria.

U2OS cells = assay: U2OS cell viability assay (CellTiter-Glo); format: cell-based; conditions: Homo sapiens, cell viability, 48 h, 5 μM Zn^II, read-out: U2OS EC50 + 5 μM Zn^II
Method: as §1
U2OS cells were seeded in black 384-well plates at a density of 3,000 cells per well in 25 μL of medium per well. After seeding, the cells were left to adhere overnight. The compounds to be tested were added to the designated culture plates in 25 μL of medium in triplicate with a normalized DMSO concentration (0.05%) in all treatments, and the plates were placed at 37° C. in a humidified atmosphere containing 5% CO2. After 48 h, 40 μl of CellTiter-Glo (Promega) was added to each well and incubated for 30 min, after which the plate luminescence was analyzed in a PerkinElmer EnVision Manager 1.13 (PerkinElmer). The average growth of treated cells was calculated by correcting the values for background luminescence and was subsequently normalized to the average of the two lowest treatments of the compound in question. Data were plotted and fitted to a dose-response curve using GraphPad Prism 9.

bacteria vs U2OS cells = assay: Antibacterial selectivity (average molar MIC in bacteria vs EC50 in U2OS cells); format: cell-based
[4] = Table 4, read-out: Strain MIC S. epidermidis
[5] = ratio of average molar MIC and U2OS EC50, Table 4

| Structure (SMILES) | logK (Zn^II binding) [1] | ligand exchange with DA-ZP1 (fluorescence increase) [2] | change of MIC with additional Zn^II in the media [3] | change of MIC in presence of EDTA ([3]; 50 μM EDTA) | MIC [3, 4] [µg/mL] | MIC ([3]; read-out: MIC) [µg/mL] | CC50 (U2OS cells) [µM] | antibacterial selectivity (bacteria vs U2OS cells) [times] | antibacterial selectivity (bacteria vs U2OS cells; [5]) |
| --- | --- | --- | --- | --- | --- | --- | --- | --- | --- |
| CC(C)[Si](c1cccc(CN(Cc2ccccn2)Cc2ccccn2)c1O)(C(C)C)C(C)C [Compound 9, 2-((bis(pyridin-2-ylmethyl)amino)methyl)-6-(triisopropylsilyl)phenol] | 6.9 | rapid increase in fluorescence | unaltered | dramatically increased | 1.2 (≈ 2.6 µM) | ~1.2 (≈ 2.6 µM) | 14.2 | 6.8 | 6.8 |
| CC(C)(C)[Si](C)(C)c1cccc(CN(Cc2ccccn2)Cc2ccccn2)c1O [Compound 8, 2-((bis(pyridin-2-ylmethyl)amino)methyl)-6-(tert-butyldimethylsilyl)phenol] | 7.5 | – | – | – | 4.2 (≈ 10 µM) | ~4.2 (≈ 10 µM) | 76.5 | 9.4 | 9.4 |
